Measured values from patent publication US20160279042A1, “Dental Anti-Hypersensitivity Composition and Method” (The Research Foundation for the State University of New York, priority 1999, published 2016).

How the values were obtained:
[1] = Hydraulic conductance of dentine discs (Greenhill and Pashley device), simulation of dentinal tubule plugging; conditions: for Hydraulic conductance, effect in words: summary of Table 1
From the text: A device developed by Greenhill and Pashley (J. Dental Research, 60:686-698, 1981) that enables simulation of dentinal tubule plugging in vivo was used to assess the effectiveness of the invention. Dentine discs that varied in thickness from 0.6 to 0.8 mm were cut with a Buhler Isomet saw from extracted caries-free molar teeth. They were then etched with 6% citric acid for two minutes to remove the smear layer and stored in 70% ethanol until used. A disc was mounted in the chamber of the apparatus with occlusal side facing upwards. The occlusal side is determined by passing light through a plastic grid beneath the section and observing the section with a dissecting microscope. The tubules appear further apart with the occlusal side up because of the lower tubular density of the dentine occlusally (Walton et al., J. Dental Research 55:639-642, 1976). Hydraulic conductance of fluid through the discs was determined as described by Greenhill and Pashley, supra.
Fluid containing levels of ions present in serum (Merck Manual, 1972) was used to perfuse the disc. Their concentrations in mM were as follows: Na-140.5, K-4.31, Ca-2.5, Mg-1.0, P-1.3. The pH of this solution is raised to 7.0 with sodium hydroxide. The solution was filtered through a […] (Millipore Corp., Marlborough, Mass. 01752) prior to use to remove any bacteria present. This solution is called artificial ionic dentinal fluid (AIDF). Hydrostatic pressure was created by a fluid reservoir leading via a glass capillary tube into the pulpal side of the chamber at a level 30 cm above that of the surface of the horizontally positioned disc. The distance traveled by an air bubble positioned in the AIDF in the capillary tubing between this pressure head and the pulpal side of the disc in a fixed period of time was converted to hydraulic conductance values in ml cm^−1 min^−1 cm H20^−1.
First, […] of AIDF was applied to the upward facing occlusal side of the section and AIDF was allowed to flow through the disc from the pulpal side for a period of five minutes. The distance that the air bubble moved inside the capillary on the pulpal side of the chamber was measured so that the rate of fluid movement through the disc could be calculated and converted to hydraulic conductance values. This procedure was repeated two more times or until a uniform flow rate was achieved on three consecutive runs. […] Next, the mixture was removed with a pipette, washed three times with 400 μl of deionized water and replaced with AIDF. The AIDF was allowed to flow through the dentine slice and hydraulic conductance readings were made at selected times up to 90 minutes.

[2] = Titration of artificial dentinal fluid, aggregation measured by absorbance; assay type: physicochemical; conditions: pH of 8.5 and above
Procedure: In order to determine the conditions that promote intrinsic plug formation, we performed the following experiments. We prepared a solution comprised of the ions present in dentinal fluid (which acted as artificial dentinal fluid) and progressively added (titrated) various solutions thereto to determine the conditions and substances conducive to the formation of aggregates (i.e., dentinal plugs). Aggregation was determined by means of measurement of the absorbance with a spectrophotometer.

SMILES | Percent Reduction in Hydraulic Conductance ([1]; 0 minutes after exposure) [%] | Percent Reduction in Hydraulic Conductance ([1]; 15 minutes after exposure) [%] | Percent Reduction in Hydraulic Conductance ([1]; 30 minutes after exposure) [%] | Percent Reduction in Hydraulic Conductance ([1]; 45 minutes after exposure) [%] | Percent Reduction in Hydraulic Conductance ([1]; 60 minutes after exposure) [%] | Percent Reduction in Hydraulic Conductance ([1]; 75 minutes after exposure) [%] | Percent Reduction in Hydraulic Conductance ([1]; 90 minutes after exposure) [%] | Hydraulic conductance, effect in words [1] | Aggregation (deposit formation) of dentinal fluid constituents [2]
N=C(N)NCCC[C@H](N)C(=O)O.O=C(O)O [arginine bicarbonate] | 0 | 11.7 | 15.6 | 14.4 | 14.5 | 16.1 | 16.1 | much smaller effects | aggregation of dentinal fluid constituents occurred
O=C([O-])[O-].[Ca+2] [calcium carbonate] | 0 | −18.5 | −12.3 | −5.5 | −4.1 | 5.5 | 5.5 | much smaller effects | not sufficient to produce deposit formation
O=C([O-])O.[Na+] [sodium bicarbonate] | 0 | −10.6 | −1.0 | 7.2 | 11.5 | 15.9 | 19.7 | – | nor could one induce deposition
[Na+].[OH-] [sodium hydroxide] | – | – | – | – | – | – | – | – | nor could one induce deposition
